# Patent publication US11903925B2, “Compositions for preventing and treating pulmonary injury due to ionizing radiation or cytotoxic drugs” (RepoCeuticals A/S, priority 2015, dated 2024)
# Legend:
# [1] = Stability (suitability for use in a pharmaceutical composition); details: hence unsuitable for use in a pharmaceutical composition
# [2] = Solubility of melatonin in water / aqueous solution; type: physicochemical; details: straightforward attempts at dissolving melatonin in water
# Experimental: The pharmaceutical composition of the present invention may be in the form of a powder, solution, emulsion, suspension, or micellar, microsphere, microcapsular, nanoparticulate or liposomal preparation. Melatonin and most of its analogues, derivatives and metabolites are only sparingly soluble in water, straightforward attempts at dissolving melatonin in water yielding a maximum melatonin concentration of only 0.1 mg/mL. Higher concentrations of melatonin are needed if aqueous preparations of melatonin are to be administered in a convenient manner, e.g. by the inhalation of an aerosol of the preparation, to the airways epithelium at the concentrations estimated to be necessary to exert a protective action against free radical damage. A method of achieving this is outlined below.
# A further formulation is to supply the composition as a dry powder as described above in a capped vial, to be reconstituted as a solution for nebulization by adding a given volume of sterile water from a second vial, to be used within one hour. The water for dissolving the formulation may contain the empirically determined amount of salts and buffering ions to produce a solution of the composition that has a near-physiological pH and osmolarity with reference to plasma to avoid the provocation of cough and bronchoconstriction on inhalation. […]
# [3] = system: lung; details: use of cytotoxic chemotherapeutic agents for cancer; cited from earlier work
compound,measurement,setting,value
COc1ccc(N)c(C(=O)CCNC(C)=O)c1 [N^1-acetyl-5-methoxykynuramine],stability,[1],unstable
"COc1ccc2[nH]cc(CCNC(C)=O)c2c1 [melatonin, N-acetyl-5-methoxytryptamine]",maximum melatonin concentration in water,[2],0.1 mg/mL
Bleomycin,overall rate of pulmonary damage,[3],over 40%
